From patent US10610586B2, “Compositions for antigen-specific induction of tolerance” (STALLERGENES, priority 2005, dated 2020)

Assays:
[1] = system: BALB/c mice sensitized with OVA; assay: Sublingual tolerization in a therapeutic model of type I allergy: airway responsiveness by whole body plethysmography; assay type: in vivo; conditions: adjuvant given sublingually together with OVA 500 μg twice a week for 2 months to OVA-sensitized mice; methacholine 50 mg/ml; compared to PBS-treated mice or OVA alone
Experimental: Sensitization was performed by two intraperitoneal (i.p.) injections in 14 days interval with 10 μg OVA adsorbed to 2 mg Al(OH)3 in a total volume of 100 μl. The sensitization was followed by a 20 min aerosol challenge with 1% w/v OVA on 5 consecutive days with an aerosol delivery system (Buxco Europe; Ltd, UK). Control animals were sham treated with sterile PBS. For tolerance induction in a therapeutic model, sensitized mice were sublingually treated with OVA or OVA plus adjuvant every week, twice a week, during 2 months at a concentration of 500 μg (20 μl). Control mice were sensitized with OVA followed by sham tolerization with PBS. Measurements of airway responsiveness were performed by whole body plethysmography (Buxco Europe; Ltd, UK), 48 h after the last challenge for sensitisation or tolerization. Airflow signals were recorded in response to aerosolized methacholine (50 mg/ml), 1 minute, four times. The higher value of Penh (enhanced pause) was taken into account for the calculation of the Penh index (Penh index=Penh measured/Penh PBS).

[2] = system: human T cells; assay: Gene expression by human T cells after coculture with adjuvant-treated DC (quantitative PCR); assay type: cell-based; conditions: human DC treated with adjuvant 24 h, cultured with allogenic naive CD4+ T cells, mRNA 24 h to 5 days later; only above 2-fold increase considered significant
Experimental: Dendritic cells DC were treated with candidate adjuvants for 24 h, washed and cultured with purified allogenic naïve CD4+ T cells. mRNAs were extracted 24 h to 5 days later and gene expression was assessed by quantitative PCR with primers specific for the tested genes. Only data above 2-fold increase were considered as significant.
A human in vitro model, consisting of a coculture of human pretreated DC with allogenic T cells, has been used to select IL-10-inducing adjuvants. Briefly, human DC were treated with adjuvants. After 24 h, the DC were washed and cultured with allogenic naive CD4+ T cells. After 24 h to 5 days, gene expression in human T cells was assessed by quantitative PCR.

[3] = system: TGF-β; assay: TGF-β production in supernatant of spleen cell cultures after sublingual tolerization; assay type: in vivo; conditions: OVA-sensitized mice treated sublingually with OVA plus adjuvant; compared to PBS-treated mice or OVA alone
Experimental: For tolerance induction in a therapeutic model, sensitized mice were sublingually treated with OVA or OVA plus adjuvant every week, twice a week, during 2 months at a concentration of 500 μg (20 μl). Control mice were sensitized with OVA followed by sham tolerization with PBS. Dosage of TGF-β from supernatants of spleen cell cultures was performed with an ELISA kit (R&D systems). Mice were killed by cervical dislocation. Spleens cells were isolated and plated in triplicate in 96-well flat-bottomed ELISPOT plates (Millipore, Massachussets) at densities of 2×10^5 cells per well. Different conditions were used: medium alone, OVA (100μg/ml) and PMA (phorbol myristyl acetate) (50 ng/ml, Sigma)/ionomycin (500 ng/ml, Sigma) which was used as positive control. Spot forming cells (SFCs) were monitored for IFN-γ, IL-5 and IL10. Elispot kits were from R&D systems Europe.

Substance: Lactobacillus plantarum [L. plantarum]
- airway responsiveness (Penh in response to methacholine) [1]: reduction of airway responsiveness
- Gene expression by T cells: IL10 [2]: induce IL10 gene expression
- TGF-β production in supernatant of spleen cell cultures [3]: enhanced
